Measurements taken from patent US20040136931A1, “Photoprotective cosmetic compositions comprising 3-(2-azacycloalkylidene)-1,3-dihydroindol-2-one compounds” (SOCIETE L'OREAL S.A., priority 2002, published 2004).

Experiments:
[1] = RPE (Resonance Paramagnetic Electronic) study of pro-oxidizing activity under irradiation; details: formulated medium, irradiation under the same conditions as the photostability test (solar simulator)
[2] = Sun screening properties (UV absorption); format: physicochemical; details: 92.8% acetonitrile+7.2% DMSO
Description: This compound has the following sun screening properties:
λmax=350 nm (92.8% acetonitrile+7.2% DMSO)

[3] = Photostability: irradiation of an oily film in a solar simulator; format: physicochemical; details: one hour of irradiation in a solar simulator (UVA=18.6 mW/cm^2, UVB=0.6 mW/cm^2); oily film containing 0.5% of the compound

λmax [2] [nm] | E1% ([2]; at λmax) | εmax ([2]; at λmax) | residual level of the compound after irradiation [3] [%] | SMILES | pro-oxidizing activity [1]
350 | 722 | 17501 1.mol^−1.cm^−1 | 92 | CCN1C(=O)/C(=C2/CCCN2C)c2ccccc21 [Compound 1, 1-Ethyl-3-(1-methylpyrrolidin-2-ylidene)-1,3-dihydroindol-2-one] | does not manifest any pro-oxidizing activity
326 | – | 22600 1.mol^−1.cm^−1 | – | CCN1C(=O)/C(=C2/CCCN2)c2ccccc21 [Compound 2, 1-Ethyl-3-pyrrolidin-2-ylidine-1,3-dihydroindol-2-one] | –
328 | – | 8100 1.mol^−1.cm^−1 | – | O=C1Nc2ccccc2/C1=C1\CCCN1 [Compound 3, 3-Pyrrolidin-2-ylidene-1,3-dihydroindol-2-one] | –
